These are literature values, as cited in patent US9464021B2, “Method of preparation of stereospecific quinone derivatives” (priority 2013, dated 2016).

The conditions of data set [1]: in vivo.
The conditions of data set [2]: liver fractions.

`CC1=C(C/C=C(/C)CCC[C@H](C)CCC[C@H](C)CCCC(C)C)C(=O)c2ccccc2C1=O` (relative stereo) [cis-phylloquinone]: the “biological activity as vitamin K” value in data set [1] is “little or no biological activity as vitamin K”. For the same compound, in data set [2], the hepatic subcellular distribution result is on record as “retained preferentially by mitochondria”.

As to `CC1=C(C/C=C(\C)CCC[C@H](C)CCC[C@H](C)CCCC(C)C)C(=O)c2ccccc2C1=O` (single isomer, unassigned) [trans isomer, phylloquinone], the “biological activity as vitamin K” value in data set [1] is listed as “full potency of the vitamin”. Also, the hepatic subcellular distribution result in data set [2] was “associated principally with the microsomal fraction and subfractions”.
